Legend:
[1] = for surface tension liquid-gas: Pendant drop shape; for viscosity / mass density: 101.33 kPa, Liquid; for viscosity: Capillary tube (Ostwald / Ubbelohde) method; for mass density: Vibrating tube method
[2] = mn = molality of the nth substance listed, in mol/kg; conditions: for surface tension liquid-gas: Pendant drop shape; for viscosity / speed of sound / mass density: 101 kPa, Liquid; for viscosity: Capillary tube (Ostwald / Ubbelohde) method; for speed of sound: Sing-around technique in a fixed-path interferometer; for mass density: Vibrating tube method

O [water]
[1]
Conditions	mass density [kg/m3]	surface tension liquid-gas [mN/m]	viscosity [mPa·s]
293.15 K	998.587	72.75	1.002
298.15 K	997.425	71.97	0.8937
303.15 K	996.04	71.18	0.8001
308.15 K	994.425	70.38	0.7225

O [water] + C[C@H](N)C(=O)O
[2], m2 = 0
Conditions	surface tension liquid-gas [mN/m]
293.15 K	72.75
298.15 K	71.97
303.15 K	71.18
308.15 K	70.38

CCCCCCCCCCCCCCCC[n+]1ccccc1.[Cl-] [cetylpyridinium chloride] + O
[2], m1 = 0.002
Conditions	mass density [kg/m3]	speed of sound [m/s]	surface tension liquid-gas [mN/m]	viscosity [mPa·s]
293.15 K	998.567	1483.1	41.75	1.004
298.15 K	997.407	1497.2	41.6	0.9033
303.15 K	996.012	1509.4	41.57	0.8137
308.15 K	994.387	1519.8	41.35	0.7557

O [water] + N[C@@H](Cc1ccccc1)C(=O)O
[2], m2 = 0
Conditions	surface tension liquid-gas [mN/m]
293.15 K	72.75
298.15 K	71.97
303.15 K	71.18
308.15 K	70.38

NCC(=O)O [2-aminoacetic acid] + O
surface tension liquid-gas [mN/m], [2]
Conditions	m1 = 0.0502	m1 = 0.0755	m1 = 0.1007	m1 = 0.1261	m1 = 0.1514
293.15 K	72.83	72.89	72.77	72.66	72.54
298.15 K	72.09	72.14	72.03	71.88	71.79
303.15 K	71.29	71.35	71.24	70.95	70.84
308.15 K	70.49	70.55	70.6	70.66	70.71

CCCCCCCC[N+](C)(CCCCCCCC)CCCCCCCC.[Cl-] [N-methyl-N,N-dioctyl-1-octanaminium chloride] + O
[2], m1 = 0.002
Conditions	mass density [kg/m3]	speed of sound [m/s]	surface tension liquid-gas [mN/m]	viscosity [mPa·s]
293.15 K	998.54	1483.4	29.98	1.043
298.15 K	997.375	1497.3	29.17	0.9291
303.15 K	995.978	1510.7	28.93	0.8195
308.15 K	994.348	1520.2	28.19	0.7465

O [water] + NCC(=O)O
[2], m2 = 0
Conditions	surface tension liquid-gas [mN/m]
293.15 K	72.75
298.15 K	71.97
303.15 K	71.18
308.15 K	70.38

C[C@H](N)C(=O)O [(S)-2-aminopropanoic acid] + O
surface tension liquid-gas [mN/m], [2]
Conditions	m1 = 0.0503	m1 = 0.0755	m1 = 0.1009	m1 = 0.1263	m1 = 0.1518
293.15 K	72.86	72.91	72.78	72.66	72.53
298.15 K	72.07	72.12	72	71.88	71.76
303.15 K	71.28	71.33	71.38	71.43	71.48
308.15 K	70.46	70.53	70.58	70.63	70.68

N[C@@H](Cc1ccccc1)C(=O)O [L-phenylalanine] + O
surface tension liquid-gas [mN/m], [2]
Conditions	m1 = 0.0505	m1 = 0.0759	m1 = 0.1015	m1 = 0.1273	m1 = 0.1532
293.15 K	72.38	71.94	70.99	70.56	70.14
298.15 K	71.09	70.66	69.74	68.37	66.91
303.15 K	70.83	69.91	68.53	66.61	64.53
308.15 K	70.03	68.98	66.59	65.22	63.35
